Results published in article PMC3893826 (Journal of medicinal chemistry, 2010).

Experiments:
[1] = biological target: Human mTORC1 complex (Homo sapiens, UniProt P42345); experiment: In vitro mTORC1 kinase assay; format: biochemical
[2] = biological target: mTOR (Mus musculus, UniProt Q9JLN9); format: cell-based

| EC50 [2] [nM] | improved mTOR cellular potency compared to screening hit compound 1 ([2]; relative to compound 1) [fold] | improvement in cellular potency, 7 versus 8 ([2]; relative to compound 8) [fold] | Structure (SMILES) | IC50 [1] [nM] | IC50 [2] [nM] |
| --- | --- | --- | --- | --- | --- |
| – | – | – | COCCC(=O)N1CCN(c2ccc(Nc3ccnc4ccc(-c5cnc6ccccc6c5)cc34)cc2C(F)(F)F)CC1 [Compound 16] | 82.6 | 40 |
| 3 | 1000 | 13 | CC(=O)N1CCN(c2ccc(-n3c(=O)ccc4cnc5ccc(-c6cnc7ccccc7c6)cc5c43)cc2C(F)(F)F)CC1 [Compound 7, 1-(4-(4-acetylpiperazin-1-yl)-3-(trifluoromethyl)phenyl)-9-(quinolin-3-yl)benzo[h][1,6]naphthyridin-2(1H)-one] | – | – |
